In ChEMBL document CHEMBL1212896, “Discovery of novel cyanodihydropyridines as potent mineralocorticoid receptor antagonists” (J Med Chem, 2010):
pIC50: −log10 of the molar value. Values after ≈ are worked out from the molar mass of the structure shown. Active and inactive are the calls of the source. The rule behind the calls is not given here.

What was measured:
[1] = Solubility of the compound; assay type: physicochemical
[2] = tested on: Liver microsomes; assay: Metabolic stability in human liver microsomes assessed as compound remaining; assay type: ADME, Microsome
[3] = target: Cytochrome P450 2D6 (Homo sapiens, UniProt P10635); assay: Inhibition of CYP2D6; assay type: ADME
Cytochrome P450 2D6, sequence (P10635 whole entry, the tested form may be a part): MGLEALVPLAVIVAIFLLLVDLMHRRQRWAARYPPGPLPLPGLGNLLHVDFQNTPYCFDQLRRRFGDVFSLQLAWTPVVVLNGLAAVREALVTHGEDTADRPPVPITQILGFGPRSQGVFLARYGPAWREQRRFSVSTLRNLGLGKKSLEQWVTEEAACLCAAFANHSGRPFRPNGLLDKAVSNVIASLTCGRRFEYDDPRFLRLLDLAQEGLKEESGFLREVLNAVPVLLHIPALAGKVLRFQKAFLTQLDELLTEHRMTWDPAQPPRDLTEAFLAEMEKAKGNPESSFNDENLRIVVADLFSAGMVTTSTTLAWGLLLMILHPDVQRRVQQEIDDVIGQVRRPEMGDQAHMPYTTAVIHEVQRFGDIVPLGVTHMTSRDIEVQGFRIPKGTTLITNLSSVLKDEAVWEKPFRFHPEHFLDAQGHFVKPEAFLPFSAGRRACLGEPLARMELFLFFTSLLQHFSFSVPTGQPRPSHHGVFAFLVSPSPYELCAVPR

[4] = target: T1, Androgen receptor (Homo sapiens, UniProt P10275); assay: Antagonist activity at androgen receptor LBD expressed in human HUH7 cells coexpressing GAL4 by luciferase reporter gene assay; assay type: functional, cell-based, Huh-7
T1 sequence (P10275 whole entry): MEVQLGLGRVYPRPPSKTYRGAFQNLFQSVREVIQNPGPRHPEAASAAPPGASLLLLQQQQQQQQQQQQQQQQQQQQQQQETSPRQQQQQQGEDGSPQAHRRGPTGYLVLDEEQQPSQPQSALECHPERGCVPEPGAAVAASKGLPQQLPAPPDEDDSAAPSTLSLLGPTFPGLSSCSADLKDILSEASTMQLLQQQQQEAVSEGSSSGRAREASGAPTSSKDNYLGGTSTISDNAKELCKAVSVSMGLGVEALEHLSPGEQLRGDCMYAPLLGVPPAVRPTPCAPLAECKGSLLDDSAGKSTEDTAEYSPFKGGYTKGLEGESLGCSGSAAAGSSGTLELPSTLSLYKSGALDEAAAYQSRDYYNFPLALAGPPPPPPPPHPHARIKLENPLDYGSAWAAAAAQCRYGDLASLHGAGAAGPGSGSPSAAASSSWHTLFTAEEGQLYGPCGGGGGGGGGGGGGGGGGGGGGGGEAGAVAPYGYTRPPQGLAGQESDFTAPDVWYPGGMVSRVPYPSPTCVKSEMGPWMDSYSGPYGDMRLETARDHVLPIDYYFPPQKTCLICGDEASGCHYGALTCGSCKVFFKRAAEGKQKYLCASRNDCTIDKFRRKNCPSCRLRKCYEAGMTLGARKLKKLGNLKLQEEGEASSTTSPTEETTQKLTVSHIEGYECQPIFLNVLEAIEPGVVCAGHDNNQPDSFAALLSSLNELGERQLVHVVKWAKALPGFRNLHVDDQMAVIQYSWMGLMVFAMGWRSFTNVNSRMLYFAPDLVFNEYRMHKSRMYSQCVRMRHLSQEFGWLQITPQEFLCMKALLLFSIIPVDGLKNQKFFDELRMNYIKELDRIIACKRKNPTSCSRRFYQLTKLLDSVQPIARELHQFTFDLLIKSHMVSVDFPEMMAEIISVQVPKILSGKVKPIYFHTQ

[5] = tested on: Rattus norvegicus; assay: Antihypertensive activity in Dahl salt-sensitive rat model assessed as decrease of systolic blood pressure at 60 mg/kg, po bid for 21 days; assay type: functional, organism-based; parameters: dose 60 mg/kg; details: Artery
[6] = Volume of distribution at steady state in Sprague-Dawley rat at 5 mg/kg, iv; assay type: ADME, organism-based; parameters: dose 5 mg/kg, route intravenous; details: in vivo, read-out: Vdss
[7] = tested on: Rattus norvegicus; assay: Protection of renal injury in Dahl salt-sensitive rat model assessed as reduction of urinal albumin excretion at 60 mg/kg, po bid for 21 days; assay type: functional, organism-based; parameters: dose 60 mg/kg
[8] = Half life in Sprague-Dawley rat at 5 mg/kg, iv; assay type: ADME, organism-based; parameters: dose 5 mg/kg, route intravenous; details: in vivo
[9] = Clearance in Sprague-Dawley rat at 5 mg/kg, iv; assay type: ADME, organism-based; parameters: dose 5 mg/kg, route intravenous; details: in vivo

Row | SMILES | solubility [1] | Stability [2] | pIC50 [3] | pIC50 [4] | inhibition (INH) [3] | Activity [5] | Vd [6] | Activity [7] | half-life [8] | clearance [9]
1 | COC(=O)C1=C(Cn2cncn2)NC(C)=C(C#N)C1c1ccc(F)cc1Cl (stereo not given) | > 5 µM | 9% | < 5.00 | 5.34 | – | – | – | – | – | –
2 | COC(=O)C1=C(C)NC(C)=C(C#N)C1c1ccc(F)cc1Cl (stereo not given) | 10 µM (≈ 3.21 µg/mL) | 37% | – | 6.52 | 0% | – | – | – | – | –
3 | COC(=O)C1=C(Cn2ccnc2)NC(C)=C(C#N)C1c1ccc(F)cc1Cl (stereo not given) | 5 µM (≈ 1.93 µg/mL) | 8% | < 5.00 | 5.41 | – | – | – | – | – | –
4 | COC(=O)C1=C(Cn2cnnn2)NC(C)=C(C#N)C1c1ccc(F)cc1Cl (stereo not given) | 31 µM (≈ 12.1 µg/mL) | 3% | < 5.00 | 5.57 | – | Active | 0.9 L/kg | Active | 4.84 h | 14.1 mL/min/kg
5 | CCCC1=C(C(=O)OC)C(c2ccccc2Cl)C(C#N)=C(C)N1 (stereo not given) | < 5 µM | 36% | – | 6.52 | 19% | – | – | – | – | –
